Test: Impurity analysis of azithromycin monohydrate granules by HPLC after storage at 50° C. for 8 days
Format: physicochemical
Conditions: results of Table 1
Experimental: Wet granules prepared according to the procedure set forth in Example 1 were placed on a tray which was placed in an oven at 55° C. Six samples were taken at different times and the moisture content was determined using an OHAUS Balance. The water/moisture content of each sample varied from 3.3-12.5 wt %, based on the total weight of the granules. The samples were stored in glass bottles, sealed, and placed in an oven at 50° C. After 8 days, the samples were removed from the oven and the amount and type of impurities was determined by high performance liquid chromatography (HPLC).
Sample solutions were freshly prepared from azithromycin monohydrate and injected on column. The percentages of impurities was calculated from the integrator output. The performance of the HPLC system was tested using standardized solutions of azithromycin monohydrate.
Three impurities were identified and measured as a percentage of the total azithromycin monohydrate in each sample.

SMILES: CC[C@H]1OC(=O)[C@H](C)[C@@H](O[C@H]2C[C@@](C)(OC)[C@@H](O)[C@H](C)O2)[C@H](C)[C@@H](O[C@@H]2O[C@H](C)C[C@H](N(C)C)[C@H]2O)[C@](C)(O)C[C@@H](C)CN(C)[C@H](C)[C@@H](O)[C@]1(C)O (relative stereo) [azithromycin monohydrate, [2R-(2R*,3S*,4R*,5R*,8R*, 10R*, 11R*, 12S*, 13S*, 14R*)]-13-[(2,6-dideoxy-3-C-methyl-3-β-methyl-α-L-ribo-hexopyranosyl)oxy]-2-ethyl-3,4,10-trihydroxy-3,5,6,8,10,12,14-heptamethyl-11-[[3,4,6-trideoxy-3-(dimethylamino)-β-D-xylo-hexopyranosyl]oxy]-1-oxa-6-azacyclopentadecan-15-one monohydrate]
- water content range in which chemical stability is good: 5.5-12.4 wt %
